Experimental data reported in patent US10676474B2, “1,6-naphthyridine derivatives as CDK4/6 inhibitor” (CSTONE PHARMACEUTICALS, priority 2016, dated 2020).
≈ marks a conversion by molar mass, not a printed value.

Tests used:
[1] = In vivo pharmacodynamic study (2), NCI-H358 model, animal weight; design: species or system BALB/c nude mice; conditions: 60 mg/kg orally daily
Procedure: (§1) The in vivo pharmacodynamic experiments were performed on the BALB/c nude mice implanted subcutaneously with the non-small cell lung cancer NCI-H358 model.
(§2) All of the cages, beddings and water were disinfected before use. All of the animals were permitted free access to a standard certified commercial laboratory diet. A total of 86 mice purchased from Vital River Laboratory Animal Co., LTD, Beijing were used for the study. The animal information of the experiments in Example 34 was as follows: BALB/c nude mice, female, 6-8 weeks, weighing approximately 16-18 g, were placed in a single ventilated cage (4 mice per cage) under a special pathogen free environment. All of the cages, beddings and water were disinfected before use. All of the animals were permitted free access to a standard certified commercial laboratory diet. A total of 56 mice purchased from Shanghai Lingchang Biotechnology Co., Ltd. were used for the study.
(§3) Each mouse was implanted subcutaneously with NCI-H358 tumor cells in the right back for tumor growth. The dosing initiated when the average tumor volume reached about 100-200 mm^3. […] The tumor volume was measured twice a week using a two-dimensional caliper, and the volume was measured in mm^3, calculated by the following the formula: V=0.5 a×b^2, wherein, a and b were the long and short diameters of the tumor, respectively. The antitumor efficacy was determined by dividing the average increase in the tumor volume of the animals treated with the compound by the average increase in the tumor volume of the untreated animals, and the safety of the compound was determined by the change in the body weight of the animal treated with the compound.

[2] = it has been reported; cited from earlier work
[3] = Metabolic stability in mouse liver microsomes; assay type: in vitro ADME; conditions: 0.5 mg/mL protein, read-out: Mice T1/2
Procedure: (§4) This assay is used to test the metabolic stability of tested substances in rats, mice and human liver microsomes.
(§5) 1) The tested compound with concentration of 1 μM was co-incubated with liver microsomes with a protein concentration of 0.5 mg/mL under a reducing coenzyme II regeneration system in a 37° C. water bath.
(§6) 2) The positive controls include: testosterone (3A4 substrate), propafenene (2D6 substrate) and diclofenac (2C9 substrate). The incubation condition of the positive controls was consistent with that of the compound.
(§7) 3) The reaction time points were: 0, 5, 10, 20, 30 and 60 minutes, and the reaction is terminated at the corresponding time point using a termination solution containing an internal standard. The compounds were also incubated with microsomes for 60 minutes without a reducing coenzyme II regeneration system and served as a negative control.
(§8) 4) Each time point was a single point (n=1).
(§9) 5) The sample was determined by LC/MS/MS, and the compound concentration was shown as the ratio of the peak area of the compound to the peak area of the internal standard (non-standard).
(§10) 6) In the project report summary, the half-life and the clearance rate would be calculated.

[4] = test system: Caco-2 cells
[5] = test system: NCI-H358 cells; test: Cell viability assay NCI-H358 (CellTiter-Glo); assay type: cell-based; conditions: Homo sapiens, 168 h; NCI-H358, incubated for 7 days
Procedure: The NCI-H358 cell line is from the cell bank of the Department of Biology of WuXi Apptec Co. Ltd. Envision Multi-Label Analyzer (PerkinElmer).
1) 100 μL of phosphate buffer solution was added to the peripheral wells of the 384-well plate and 40 μL of NCI-H358 cell suspension was added to the other wells containing 250 NCI-H358 cells. The cell plate was then placed in a carbon dioxide incubator and incubated overnight.
2) A 3-fold gradient dilution was subjected to the tested compounds using Echo. Each compound was diluted by 10 concentration gradients (diluted from 25 μM to 1.27 nM), 100 nL of which was added to the corresponding wells of the cell plate. The cell plate was then placed in a carbon dioxide incubator and incubated for 7 days.
3) 20 μL of Promega CellTiter-Glo reagent was added to each well of the cell plate, and shaken for 10 minutes away from light at room temperature to stabilize the luminescence signal. Readings were performed using a PerkinElmer Envision Multi-label Analyzer.
Table 1 provides the inhibitory activity of the compounds of the present invention against the proliferation of H358 cells.

[6] = Metabolic stability in rat liver microsomes; assay type: in vitro ADME; conditions: 0.5 mg/mL protein, read-out: Rats T1/2
Procedure: as §4, §5, §6, §7, §8, §9, §10

[7] = test system: non-small cell lung cancer NCI-H358 model; test: In vivo pharmacodynamic study (2), NCI-H358 model, tumor volume; design: species or system BALB/c nude mice; conditions: 60 mg/kg orally daily, Table 6-1
Procedure: as §1, §2, §3
TGI: Tumor Growth Inhibition.

[8] = Metabolic stability in human liver microsomes; assay type: in vitro ADME; conditions: 0.5 mg/mL protein, read-out: Human T1/2
Procedure: as §4, §5, §6, §7, §8, §9, §10

[9] = physchem; conditions: pH 7.4, aqueous buffer, kinetic from dmso stock
[10] = Thermodynamic solubility test (shake-flask, HPLC); assay type: physicochemical; conditions: phosphate buffer, aqueous buffer, thermodynamic from solid; pH = 7.4, Table 3-2; read-out: Thermodynamic solubility
Procedure: The thermodynamic solubility of the compounds was determined by the shake-flask method and HPLC. The solubility of the compounds is an important property that affects drug screening of compounds and the absorption of compounds in animals and humans. A saturated solution of the compound was first given and quantitatively tested by HPLC to obtain the solubility of the compound.
50 mM phosphate buffer solution, pH 7.4.
Not less than 2 mg of the sample powder was weighed into a vial of Whatman miniuniprep. If test of the thermodynamic solubility of a sample in multiple buffer solutions is required, an individual vial is required for each test.
450 μL of the buffer solution (pH 7.4) was added to each Whatman miniuniprep vial.
After the addition of the buffer solution, the Whatman miniuniprep cap with a filter was mounted and pressed above the liquid level so that the filter could contact with the buffer solution during shaking.
And the observation of the solution was recorded.
It was shaked at 550 RPM for 24 hours at room temperature (about 22 to 25° C.).
The Whatman Miniunipreps filter cap was pressed to the bottom to give the filtrate of the sample solubility solution. All sample vials should be filtered before and after insoluble substances and their leakage.
The buffer was diluted 50 folds to give a sample diluent.
Three UV standards from low to high concentration were injected into HPLC, followed by the injection of the dilutions and supernatants of the tested compounds. The tested sample was injected twice.

[11] = test system: LU-01-0393 lung cancer patient-derived tumor tissue xenograft (PDX); test: In vivo pharmacodynamic study (1), LU-01-0393 PDX; design: species or system BALB/c nude mice; conditions: 120 mg/kg orally daily
Procedure: The in vivo pharmacodynamic experiments were performed on the BALB/c nude mice implanted subcutaneously with the LU-01-0393 lung cancer patient-derived tumor tissue xenograft (PDX).
BALB/c nude mice, female, 6-8 weeks, weighing approximately 17-21 g, were placed in a single ventilated cage (5 mice per cage) under a special pathogen free environment. All of the cages, beddings and water were disinfected before use. All of the animals were permitted free access to a standard certified commercial laboratory diet. A total of 36 mice purchased from Vital River Laboratory Animal Co., LTD, Beijing were used for the study. Each mouse was implanted subcutaneously with a tumor LU-01-0393 FP4 section (20-30 mm^3) in the right back for tumor growth. The dosing initiated when the average tumor volume reached about 150-200 mm^3. The tumor volume was measured twice a week using a two-dimensional caliper, and the volume was measured in mm^3, calculated by the following the formula: V=0.5 a×b^2, wherein, a and b were the long and short diameters of the tumor, respectively. The antitumor efficacy was determined by dividing the average increase in the tumor volume of the animals treated with the compound by the average increase in the tumor volume of the untreated animals.

- Changes in animal weight, 0 days ([1]; 0 days): 0.0%
- Changes in animal weight, 7 days ([1]; 7 days): 1.0%
- Changes in animal weight, 14 days ([1]; 14 days): 0.9%
- Changes in animal weight, 17 days ([1]; 17 days): 0.7%
- half-life at 1 μM [3]: 53.3 min
- Category Efflux transporter substrate [4]: Highly
- Category Permeability [4]: Low
- IC50 [5]: 314 nM
- half-life at 1 μM [6]: 47.8 min
- half-life at 1 μM [8]: 44.7 min
- solubility kinetic at 24 h [9]: 103 µM (≈ 46.1 µg/mL)
- solubility thermodynamic at 24 h [10]: 65.3 µM (≈ 29.2 µg/mL)
Structure (SMILES): CC(=O)c1c(C)c2cnc(Nc3ccc(N4CCNCC4)cn3)nc2n(C2CCCC2)c1=O [Palbociclib]
- brain permeability [2]: poor
- Gross tumor volume, 0 day ([7]; 0 day): 152 mm^3
- Gross tumor volume, 7 days ([7]; 7 days): 137 mm^3
- Gross tumor volume, 14 days ([7]; 14 days): 107 mm^3
- Gross tumor volume, 17 days ([7]; 17 days): 104 mm^3
- Gross tumor volume Day 0 ([11]; Day 0): 145 mm^3
- Gross tumor volume Day 7 ([11]; Day 7): 173 mm^3
- Gross tumor volume Day 14 ([11]; Day 14): 179 mm^3
- Gross tumor volume Day 20 ([11]; Day 20): 188 mm^3
